In assay [1] the test system is TNF. The format is cell-based, NMRI mice. The settings on record: 24 h supernatant, mean ± SEM. As to the method: Spleens were obtained from healthy NMRI mice. […] The cells (2×10^61/Ml) were cultured in Iscove's complete medium (10% FCS, 5×10^−5 M 2-mercaptoethanol, 2 mM L-glutamine, and 50 μg/ml gentamicin). […] To determine the proliferative response, the cells were cultured in 96-well plates (Nunc) for 3 days. The cultures were pulsed with 1 μCi of (^3H)TdR (Amersham, Bucks, UK) 12 h before harvest and calculation of TdR uptake in a beta counter. The levels of TNF.- were determined using sandwich enzyme-linked immunosorbent assays (ELISA) kit from R&D Systems Minneapolis, Minn.).

In the next assay the test system is MIP-1α. As to the kind of experiment: Serum MIP-1α in CII immunized mice (ELISA). The format is in vivo, B10.QxDBA/1 female mice. To be noted: serum at end of experiment, mean ± SEM. As to the method: Levels of TNF, IL-1b, RANTES, and macrophage inflammatory protein (MIP)-1α were determined using sandwich ELISA from R&D Systems (Minneapolis, Minn.).
For orientation: ELISA stands for enzyme-linked immunosorbent assay.

A further assay has as its system TNF-α. The format is cell-based. The settings on record: spleen cells of mice given 12.5 mg/kg 4 days a week for 4 weeks; mean ± SEM, 4 mice.
Assay [2] deals with S. aureus-induced arthritis. The assay can be described thus: Histopathological and immunohistochemical examination of joints, S. aureus arthritis. It counts as in vivo, NMRI mice. As to the method:
The mice were sacrificed 6 days after bacterial inoculation One front and one hind paw from each animal in both groups (etoposide-treated and controls) were removed. Histopathological examination was performed after routine fixation, decalcification, paraffin embedding, and staining with hematoxylin and eosin. All the slides were coded and the joints were studied with regard to synovial hypertrophy (defined as a synovial membrane thickness of more than two cell layers), pannus formation (synovial tissue overlaying the joint cartilage), and cartilage and bone destruction.
In another experiment, mice were killed by cervical dislocation 6 days after bacterial inoculation, all four limbs were removed and demineralized by a procedure detailed in an earlier report. The demineralized specimens were mounted on cryostat chucks, frozen in isopentane prechilled by liquid nitrogen, and kept at −70° C. until cryosectioned. Six μm-thick sections were cut frontally to permit simultaneous inspection of most joints within the paw. All sections were fixed in cold acetone for 5 min, washed in PBS, and depleted of endogenous peroxidase by treatment with 0.3% H2O2 for 5 min. The sections were incubated overnight in a humid atmosphere at +4° C. with 50 μl portions of unlabelled rat monoclonal antibody specific for macrophages (Mac-3, clone M3/84 from PharMingen), diluted in PBS containing 1% BSA. Biotin-labelled rabbit antl-rat Ig diluted in PBS-BSA was used as secondary antibody. Binding of secondary antibodies was detected by stepwise incubation with avidin-biotin-peroxidase complexes (ABC) and a buffert containing 3-amino-9-ethyl-carbazole and H2O2. All sections were counterstained with Mayer's hematoxylin.

For assay [3], the system named is IL-6. As to the kind of experiment: Serum IL-6 in CII immunized mice (B9 bioassay). It counts as in vivo, B10.QxDBA/1 female mice. To be noted: serum at end of experiment, mean ± SEM. How it is done: For quantification of serfu CII antibodies, 96-well plates (Nunc, Roskilde, Denmark) were coated overnight at 4° C. with 10 μg/ml of native CII. Standards and samples were diluted in 0.5% BSA-PBS. Biotinylated F(ab/)2 fragments of goat anti-mouse IgG (Jackson ImmunoResearch Laboratories, West Grove, Pa.) was used as secondary antibody. Development was performed using horseradish peroxidase 0.5 μg/ml and 2.5 mg of the enzyme substrate 2,2-azino-bis-(3-ethylbenzothiazoline sulfonic acid) (Sigma) per mal in citrate buffer (pH 4.2), containing 0.0075% H2O2. The absorbance was measured at 405 nm in a SPECTRAmax spectrophotometer (Molecular Devices, Calif.). IFN-γ levels in sera were quantified with an ELISA system previously described (13). Ninety-six well plates (Nunc) were coated with 2 μg/ml of rat anti-mouse IFN-γ mab (Pharmingen, San Diego, Calif.). Sera, recombinant IFN-γ (Genzyme, Cambridge, Mass.), biotinylated antibodies were all diluted in 0.05 M Tris pH 7.4+0.015 M NaCl. A biotinylated anti mouse IFN-γ antibody (2 μg/ml) (Pharmigen) was used as secondary antibody. After incubation with extravidin alkaline phosphatase 0.5 ?g/ml and alkaline phosphatase substrate 1 mg/ml (Sigma) the absorbance was measured at 405 nm. Interleukin 6 (IL-6) levels in serum and supernatants were measured by a bioassay using cell line B13.29, subclone B9, which is dependent on IL-6 for growth. […]

For assay [4], the system named is IL-6. As to the kind of experiment: IL-6 release by IC-21 macrophage cell line. It counts as cell-based, murine. As to the method: These cells display many typical features of the macrophage phenotype and are therefore a suitable model for studying cytoline and chemokine release during inflammation (16). The cells were maintained in continous culture using RPMI-1640 supplemented with 10% FCS, L-glutamine, and gentamycin. When the cells had grown to about 70% confluency, they were seeded into a 24-well-plate (Nunc) at a concentration of 1×10^5 per well and incubated at 37° C. in 5% CO2 for 24 h. […] After 24 h of incubation, the cells were washed once with PBS, and reincubated with medium containing different concentrations (1, 10, 100, 1000 ng/ml) of LPS (Difco) and IFN-γ (10, 50, 100 u/nml). The interferon-γ was purified from the supernatants from Chinese hanater ovary (CHO) cells transfected with the murine IFN-γ gene (hybridoma kindly provided by Dr. Morris, Department of Biological Sciences, University of Warwick, Coventry, UK). After 2 and 24 h of incubation the supernatants were collected and stored at −20° C. until analysis.

In assay [5] the test system is TNF. The format is cell-based, NMRI mice. The settings on record: spleen cells from non-infected in vivo etoposide-treated mice; mean ± SEM, four mice.
Where [6] appears, read: Etoposide-treated (from day 40).

This note sets out measurements from patent US20030148963A1 (priority 2000, published 2003).

Read-outs that look alike come from different tables or passages of the source. Marks after values point to notes of the source that are not given here.

`COc1cc([C@@H]2c3cc4c(cc3[C@@H](O[C@@H]3O[C@@H]5CO[C@@H](C)O[C@H]5[C@H](O)[C@H]3O)[C@H]3COC(=O)[C@H]23)OCO4)cc(OC)c1O` [Etoposide]: the “TNF, ConA stimulated” value in the assay with TNF [1] (etoposide 1 μM, four mice) is 167 ± 29 pg/mL; with TNF [1] (etoposide 10 μM) it was 66 ± 19^b pg/ml; in the assay on TNF [1] (etoposide 100 μM), 10 ± 1^b pg/ml; in the assay with TNF [5], 138 ± 17 pg/mL. Besides, the “TNF, TSST-1 stimulated” value is 64 ± 20 pg/mL in the assay on TNF [1] (etoposide 1 μM, four mice); 38 ± 8^b pg/ml with TNF [1] (etoposide 10 μM); 16 ± 3^b pg/ml in the assay with TNF [1] (etoposide 100 μM); 77 ± 22 pg/mL in the assay on TNF [5]. Also, the MIP-1a is given as 3.0 ± 0.5^c pg/ml in the assay with MIP-1α (Etoposide-pretreated) and 2.9 ± 0.3^c pg/ml in the assay on MIP-1α (setting [6]). Also, the “TNF-α, Con A” value in the assay with TNF-α is listed as 6 ± 0.5^a) pg/ml. In addition, in the assay on TNF-α, the “TNF-α, TSST-1” value was 6 ± 0.4^a) pg/ml. Moreover, the “Mice with cartilage and bone destructions” value in assay [2] (6 days after S. aureus inoculation, controls 8 out of 10) is reported as 4 out of 8. Moreover, the “Mice with synovial hypertrophy” value in assay [2] (6 days after S. aureus inoculation, controls 9 out of 10) was 4 out of 8. Moreover, in assay [2] (S. aureus infected, etoposide vs PBS, data not shown), the “Numbers of Mac-3 positive cells in joints” value is given as “did not show any significant differences”. In addition, the IL-6 was 117 ± 21a pg/ml in the assay with IL-6 [3] (Etoposide-pretreated) and 179 ± 21^b pg/ml with IL-6 [3] (setting [6]). Moreover, the “Levels of IL-6 in supernatants” value is reported as “seemed to be upregulated” in the assay on IL-6 [4] (IC-21, stimulated with IFN-γ, levels very low, FIG. 6B) and “downregulated” in the assay on IL-6 [4] (IC-21, stimulation by LPS, FIG. 6A).
